In US8765748B2, “Indazolyl, benzimidazolyl, benzotriazolyl substituted indolinone derivatives as kinase inhibitors useful in the treatment of cancer” (University Health Network, priority 2007, dated 2014):
Where two headings read alike, the source gives them in different places.

Key:
human PLK4 = target: T1, human PLK4 (Homo sapiens, UniProt O00444); assay: PLK4 Inhibition Assay (indirect ELISA); format: biochemical; settings: 15 μM ATP, 4 nM GST-PLK4; read-out: PLK4 IC50 Ranges
T1 construct: amino terminal GST fusion of residues 1-391 of human PLK4; made in house; host or cells: E. coli
T1 sequence (O00444 1-391): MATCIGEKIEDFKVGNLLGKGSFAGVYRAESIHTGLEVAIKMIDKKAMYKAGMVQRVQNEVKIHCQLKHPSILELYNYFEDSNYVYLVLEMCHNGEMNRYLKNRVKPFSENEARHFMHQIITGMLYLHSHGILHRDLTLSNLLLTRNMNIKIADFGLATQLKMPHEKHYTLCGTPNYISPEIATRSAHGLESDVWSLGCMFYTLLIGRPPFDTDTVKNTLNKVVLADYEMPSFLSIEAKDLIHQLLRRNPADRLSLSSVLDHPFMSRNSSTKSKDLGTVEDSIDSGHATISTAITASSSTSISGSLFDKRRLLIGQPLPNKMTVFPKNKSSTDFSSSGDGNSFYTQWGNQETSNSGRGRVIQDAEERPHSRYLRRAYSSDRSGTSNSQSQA
Method in brief: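 IC50 values, from 4-point logistic fitting, reflect remaining activity measured by indirect ELISA. Enzyme was GST-PLK4 treated with lambda phosphatase and given a 15-minute pre-incubation with compound before ATP start.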

[1] = tested on: T47 D breast cancer cell line; assay: Cell growth inhibition, SRB assay, extended panel; format: cell-based; settings: Homo sapiens, T47D; read-out: GI50 on T47D Breast cancer cell line
Experimental: (§1) Breast cancer cells (MCF-7, MDA-MB-468, HCC1954), colon cancer cells (SW620) and lung cancer cells (A549), together with human mammary epithelial primary cells (HMEC), were seeded (1000 to 4000 per 80 μl per well depending on the cell growth rate) into 96 well plates, 24 hours before compound overlay. Compounds were prepared as 10 mM stock solutions in 100% DMSO which were diluted with DMEM (Dulbecco's Modified Eagle's Medium) cell growth Medium (Invitrogen, Burlington, ON, Canada) containing 10% FBS (Fetal Bovine Serum) to concentrations ranging from 50 nM to 250 μM. Aliquots (20 μl) from each concentration were overlaid to 80 μl of the pre-seeded cells in the 96 well plates to make final concentrations of 10 nM to 50 μM. The cells were cultured for 5 days before the Sulforhodamine B assay (SRB) was performed to determine the compound's cell growth inhibition activity.
(§2) Sulforhodamine B (purchased from Sigma, Oakville, ON, Canada) is a water-soluble dye that binds to the basic amino acids of the cellular proteins. Thus, colorimetric measurement of the bound dye provides an estimate of the total protein mass that is related to the cell number. the cells are fixed in situ by gently aspirating off the culture media and adding 50 μl ice cold 10% Tri-chloroacetic Acid (TCA) per well and incubate at 4° C. for 30-60 min, The plates are washed with water five times and allowed to air dry for 5 min. Addition of 50 μl 0.4% (w/v) SRB solution in 1% (v/v) acetic acid to each well and incubatation for 30 min at RT completes the staining reaction. Following staining, plates are washed four times with 1% acetic acid to remove unbound dye and then allowed to air dry for 5 min. The stain is solubilized with 100 μl of 10 mM Tris pH10.5 per well. Absorbance is read at 570 nm.
(§3) The percentage (%) of relative growth inhibition was calculated by comparing to DMSO treated only cells (100%). GI50's were determined for compounds with cytotoxic activity. The GI50 was calculated using GraphPad PRISM software (GraphPad Software, Inc., San Diego, Calif., USA).
In addition to the cell lines tested as described above, selected compounds have been assayed against an extended panel. […] The sulforhodamine B assay (SRB) described above was use to assay test compounds against the extended panel (Table 9).

[2] = tested on: MCF-7 luminal breast cancer cell line; assay: Cell growth inhibition, Sulforhodamine B assay (SRB); format: cell-based; settings: Homo sapiens
Experimental: as §1, §2, §3

[3] = tested on: MDA-MB-468 basal breast cancer cell line; assay: as above; format: cell-based; settings: Homo sapiens
Experimental: as §1, §2, §3

PLK1 = target: T2, PLK1 (Homo sapiens, UniProt P53350); assay: PLK1 Inhibition Assay (Z-Lyte); format: biochemical; settings: for IC50: 25 μM ATP, 8 nM PLK1, read-out: PLK1 IC50 Ranges; for inhibition at 10 µM: 10 μM compound, read-out: PLK1 relative inhibition percentage at a dose of 10 μM
T2 construct: purchased Invitrogen PV3501
Experimental: PLK1 inhibition was determined using the Z-Lyte assay kit from Invitrogen (cat #PV3802). […] The % inhibition values were determined according to the manufacturer's directions and IC50 values were obtained using a non-linear 4 point logistic curve fit (XLfit4, IDBS)

Aurora A = target: T3, Aurora A (Homo sapiens, UniProt O14965); assay: Aurora A Inhibition Assay (Z-Lyte); format: biochemical; settings: for IC50: 20 μM ATP, 12 nM Aurora A, read-out: Aurora A IC50 Ranges
T3 construct: purchased Invitrogen PV3612
T3 sequence (O14965 1-403): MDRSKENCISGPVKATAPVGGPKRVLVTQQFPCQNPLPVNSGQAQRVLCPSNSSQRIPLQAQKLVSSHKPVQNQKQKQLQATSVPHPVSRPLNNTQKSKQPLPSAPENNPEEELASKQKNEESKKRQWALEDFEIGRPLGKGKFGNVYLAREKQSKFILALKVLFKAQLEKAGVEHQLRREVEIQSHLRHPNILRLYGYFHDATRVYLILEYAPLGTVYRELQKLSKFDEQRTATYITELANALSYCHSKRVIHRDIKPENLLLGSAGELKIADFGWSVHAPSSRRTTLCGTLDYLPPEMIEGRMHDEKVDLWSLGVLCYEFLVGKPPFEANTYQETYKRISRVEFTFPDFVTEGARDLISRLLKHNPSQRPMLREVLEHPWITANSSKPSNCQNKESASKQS
Experimental: (§4) Aurora A inhibition was determined using the Z-Lyte assay kit from Invitrogen. The assay was performed using the recommended manufacturer's instructions with 20 μM ATP and 12 nM Aurora A (Invitrogen cat #PV3612). The % inhibition values were determined according to the manufacturer's directions and IC50 values were obtained using a non-linear 4 point logistic curve fit (XLfit4, IDBS)

Aurora B = target: T4, Aurora B (Homo sapiens, UniProt Q96GD4); assay: Aurora B Inhibition Assay (Z-Lyte); format: biochemical; settings: 128 μM ATP, 28 nM Aurora B; read-out: Aurora B IC50 Ranges
T4 construct: purchased Invitrogen PV3970
Experimental: as §4, with “Aurora B” for “Aurora A”, “with 128” for “with 20”, “and 28” for “and 12”, “cat #PV3970).” for “cat #PV3612).”

[4] = tested on: HCC1954 basal breast cancer cell line; assay: Cell growth inhibition, Sulforhodamine B assay (SRB); format: cell-based; settings: Homo sapiens, HCC1954, 120 h, 5 days culture, read-out: Cell Line GI50 Range, HCC-1954
Experimental: as §1, §2, §3

SW620 colon cancer cells = assay: as above; format: cell-based; settings: Homo sapiens, SW-620, 120 h, 5 days culture, read-out: Cell Line GI50 Range, SW-620
Experimental: as §1, §2, §3

A549 lung cancer cells = assay: as above; format: cell-based; settings: Homo sapiens, A549, 120 h, 5 days culture, read-out: Cell Line GI50 Range, A-549
Experimental: as §1, §2, §3

[5] = tested on: human mammary epithelial primary cells (HMEC); assay: as above; format: cell-based; settings: 120 h, 5 days culture, read-out: Cell Line GI50 Range, HMEC
Experimental: as §1, §2, §3

PLK2 = target: T5, PLK2 (Homo sapiens, UniProt Q9NYY3); assay: PLK2 Inhibition Assay (Z-Lyte); format: biochemical; settings: 10 μM compound; read-out: PLK2 relative inhibition percentage at a dose of 10 μM
T5 construct: purchased Invitrogen PV4204
Experimental: as §4, with “PLK2” for “Aurora A”, “Invitrogen (cat #PV3802).” for “Invitrogen.”, “60” for “20”, “133” for “12”, “#PV4204).” for “#PV3612).”

[6] = MCF7, read-out: GI50 on MCF-7 Breast cancer cell line
[7] = MDA-MB-468, read-out: GI50 on MDA-MB-468 Breast cancer cell line
[8] = MCF7, 120 h, 5 days culture, SRB, read-out: Cell Line GI50 Range, MCF-7
[9] = MDA-MB-468, 120 h, 5 days culture, SRB, read-out: Cell Line GI50 Range, MDA-MB-468

T5 sequence (Q9NYY3 whole entry): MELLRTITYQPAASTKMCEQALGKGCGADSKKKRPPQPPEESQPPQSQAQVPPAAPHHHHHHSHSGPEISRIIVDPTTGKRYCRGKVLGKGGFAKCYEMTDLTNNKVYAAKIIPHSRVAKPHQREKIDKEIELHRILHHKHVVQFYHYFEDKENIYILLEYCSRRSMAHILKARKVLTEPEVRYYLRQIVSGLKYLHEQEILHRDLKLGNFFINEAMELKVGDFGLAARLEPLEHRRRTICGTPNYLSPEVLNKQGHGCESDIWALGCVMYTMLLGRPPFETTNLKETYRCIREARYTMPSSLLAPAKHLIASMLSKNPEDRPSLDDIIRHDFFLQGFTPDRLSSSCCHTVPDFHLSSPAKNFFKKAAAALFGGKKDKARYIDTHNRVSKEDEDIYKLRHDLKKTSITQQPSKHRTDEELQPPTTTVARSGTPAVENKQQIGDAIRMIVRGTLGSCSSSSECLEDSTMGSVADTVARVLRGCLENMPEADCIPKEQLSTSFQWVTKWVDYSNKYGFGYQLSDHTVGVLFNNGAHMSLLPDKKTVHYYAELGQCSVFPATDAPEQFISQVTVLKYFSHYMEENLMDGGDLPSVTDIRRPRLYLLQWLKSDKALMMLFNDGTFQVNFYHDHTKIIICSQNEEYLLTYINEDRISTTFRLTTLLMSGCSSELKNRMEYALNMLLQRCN
T2 sequence (P53350 whole entry): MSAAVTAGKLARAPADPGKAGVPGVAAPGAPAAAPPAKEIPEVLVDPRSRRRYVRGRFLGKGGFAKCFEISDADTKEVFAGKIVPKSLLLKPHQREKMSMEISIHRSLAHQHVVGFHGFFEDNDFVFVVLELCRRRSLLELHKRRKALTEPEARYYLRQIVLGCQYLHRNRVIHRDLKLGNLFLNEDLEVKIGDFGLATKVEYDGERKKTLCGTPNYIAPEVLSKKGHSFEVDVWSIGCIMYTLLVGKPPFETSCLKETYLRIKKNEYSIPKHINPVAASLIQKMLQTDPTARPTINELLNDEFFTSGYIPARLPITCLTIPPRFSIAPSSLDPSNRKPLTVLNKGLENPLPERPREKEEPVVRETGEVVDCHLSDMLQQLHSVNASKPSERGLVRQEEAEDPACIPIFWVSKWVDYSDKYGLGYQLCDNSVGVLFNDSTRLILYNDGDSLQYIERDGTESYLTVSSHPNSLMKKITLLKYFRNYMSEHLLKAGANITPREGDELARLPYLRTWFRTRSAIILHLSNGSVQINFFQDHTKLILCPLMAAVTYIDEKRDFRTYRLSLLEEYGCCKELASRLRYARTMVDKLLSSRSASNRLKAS
T4 sequence (Q96GD4 whole entry): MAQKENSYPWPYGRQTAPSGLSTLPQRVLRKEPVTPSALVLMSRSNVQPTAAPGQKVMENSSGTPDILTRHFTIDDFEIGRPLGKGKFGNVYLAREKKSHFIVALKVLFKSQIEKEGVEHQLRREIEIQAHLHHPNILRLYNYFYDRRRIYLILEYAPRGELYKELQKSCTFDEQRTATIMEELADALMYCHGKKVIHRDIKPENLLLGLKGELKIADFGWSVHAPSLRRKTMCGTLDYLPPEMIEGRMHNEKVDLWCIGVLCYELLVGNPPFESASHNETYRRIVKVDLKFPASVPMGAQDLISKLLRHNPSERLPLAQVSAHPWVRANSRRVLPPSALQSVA

| IC50 (human PLK4) | GI50 [1] | GI50 [2, 6] | GI50 [3, 7] | IC50 (PLK1) | IC50 (Aurora A) | IC50 (Aurora B) | GI50 [4] | GI50 (SW620 colon cancer cells) | GI50 (A549 lung cancer cells) | GI50 [2, 8] | GI50 [3, 9] | inhibition at 10 µM (PLK2) | inhibition at 10 µM (PLK1) | inhibition at 10 µM (Aurora A; 10 μM compound, read-out: Aurora A relative inhibition percentage at a dose of 10 μM) | Structure (SMILES) | GI50 [5] |
| --- | --- | --- | --- | --- | --- | --- | --- | --- | --- | --- | --- | --- | --- | --- | --- | --- |
| < 5 µM |  |  |  |  | < 5 µM | < 5 µM | 5 to 20 µM | < 5 µM | > 50 µM | < 5 µM | < 5 µM | < 50% | < 50% |  | O=C1Nc2ccc(Cl)cc2/C1=C\c1ccc2c(/C=C/c3ccncc3)n[nH]c2c1 [Example A84, (E)-5-chloro-3-((3-((E)-2-(pyridin-4-yl)vinyl)-1H-indazol-6-yl)methylene)indolin-2-one] | > 50 µM |
| < 5 µM |  |  |  |  | 5 to 50 µM | < 5 µM | < 5 µM | < 5 µM |  | < 5 µM | < 5 µM | < 50% | < 50% |  | O=C1Nc2ccccc2/C1=C\c1ccc2c(-c3cccs3)n[nH]c2c1 [Example A91, (E)-3-((3-(thiophen-2-yl)-1H-indazol-6-yl)methylene)indolin-2-one] | 5 to 20 µM |
|  |  |  |  |  |  |  | 5 to 20 µM | < 5 µM | 5 to 20 µM | < 5 µM | < 5 µM | < 50% | < 50% | > 50% | Cc1ncsc1/C=C/c1n[nH]c2cc(/C=C3/C(=O)Nc4ccccc43)ccc12 [Example A103, (E)-3-((3-((E)-2-(4-methylthiazol-5-yl)vinyl)-1H-indazol-6-yl)methyl-ene)indolin-2-one] | > 50 µM |
| < 5 µM | > 50 µM | > 50 µM | > 50 µM |  | < 5 µM |  |  |  |  |  |  | < 50% | < 50% |  | CCOC(=O)/C=C/c1n[nH]c2cc(/C=C3/C(=O)Nc4ccc(OC)cc43)ccc12 [Example A111, (E)-ethyl 3-(6-((E)-(5-methoxy-2-oxoindolin-3-ylidene)methyl)-1H-indazol-3-yl)acrylate] |  |

The next lines start with the compound.

| Structure (SMILES) | IC50 (human PLK4) | GI50 [1] | GI50 [2, 6] | GI50 [3, 7] | IC50 (PLK1) | IC50 (Aurora A) | IC50 (Aurora B) | GI50 [4] | GI50 (SW620 colon cancer cells) | GI50 (A549 lung cancer cells) | GI50 [2, 8] | GI50 [3, 9] | inhibition at 10 µM (PLK2) | inhibition at 10 µM (PLK1) | inhibition at 10 µM (Aurora A; 10 μM compound, read-out: Aurora A relative inhibition percentage at a dose of 10 μM) | GI50 [5] |
| --- | --- | --- | --- | --- | --- | --- | --- | --- | --- | --- | --- | --- | --- | --- | --- | --- |
| CNS(=O)(=O)c1ccc2c(c1)C(=Cc1ccc3cn[nH]c3c1)C(=O)N2 (mixture of isomers) [Example A9, (E and Z)-3-((1H-indazol-6-yl)methylene)-N-methyl-2-oxoindoline-5-sulfonamide] | < 5 µM | > 50 µM | > 50 µM | > 50 µM | < 5 µM |  |  |  |  |  |  |  |  |  |  |  |
| CNS(=O)(=O)c1ccc2c(c1)C(=Cc1ccc3[nH]nnc3c1)C(=O)N2 [Example A7, 3-((1H-benzo[d][1,2,3]triazol-5-yl)methylene)-N-methyl-2-oxoindoline-5-sulfonamide] | < 5 µM | > 50 µM | > 50 µM | > 50 µM | 5 to 50 µM |  |  |  |  |  |  |  |  |  |  |  |
| O=C(O)/C=C/c1n[nH]c2cc(/C=C3/C(=O)Nc4ccccc43)ccc12 [Example A70, (E)-3-(6-((E)-(2-oxoindolin-3-ylidene)methyl)-1H-indazol-3-yl)acrylic acid] | < 5 µM | > 50 µM | > 50 µM | > 50 µM |  |  |  |  |  |  |  |  |  |  |  |  |
